The conditions of this data set: for aqueous solubility: pH 6.8.

As a reminder, the aqueous solubility is the dissolved amount per volume that the medium holds.

Converted amounts (≈) assume the structure as drawn. Where only a bound is given, the exact number is not on record here.

For `O=C(Nc1ccc(C2CCCCC2)cc1)c1ccc(S(=O)(=O)NCc2cccnc2)cc1`, the intrinsic clearance, human liver microsomes was found to be 194 mL/min/kg and the intrinsic clearance, rat liver microsomes was 604 mL/min/kg.
On to `O=C(NC[C@H]1CCN(c2ccccc2)C1)N1CCc2sccc2C1`, for which the MDR1-MDCK efflux ratio is 0.834; the intrinsic clearance, human liver microsomes came out at 226 mL/min/kg; the intrinsic clearance, rat liver microsomes is 2510 mL/min/kg; the aqueous solubility was found to be 16.9 µg/mL (≈ 49.3 µM).
Compound `Cc1ccc(C)c(NC(=O)c2cccc(-c3ncon3)c2)c1` had an intrinsic clearance, human liver microsomes of 41.7 mL/min/kg and an intrinsic clearance, rat liver microsomes of 164 mL/min/kg.
Take `O=C(C1CC1)N1CC[C@@H](Cc2n[nH]c(=O)n2-c2ccc(-c3ccc4occc4c3)cc2)C1`: the MDR1-MDCK efflux ratio was found to be 61.1; the intrinsic clearance, human liver microsomes worked out at 20.4 mL/min/kg; the intrinsic clearance, rat liver microsomes amounted to 101 mL/min/kg; the aqueous solubility came out at 40.1 µg/mL (≈ 93.6 µM).
Consider `Cc1cc(C(=O)NCCC2=CSC3=NCCCN23)c2cccc(C)c2n1`, for which the MDR1-MDCK efflux ratio came out at 8.31; the intrinsic clearance, human liver microsomes is at most 4.74 mL/min/kg; the intrinsic clearance, rat liver microsomes was found to be 291 mL/min/kg; the aqueous solubility came out at 46.1 µg/mL (≈ 126 µM).
For `Cn1c(=O)n(Cc2cccc(OC(F)F)c2)c2cnccc21` the same measures were 1.34, 10.4 mL/min/kg, 209 mL/min/kg and 49.1 µg/mL (≈ 161 µM).
Consider `CNc1ccc(/C=C/c2ccc(OCCOCCOCCF)nc2)cc1`, for which the MDR1-MDCK efflux ratio is 0.533; the intrinsic clearance, human liver microsomes came to 253 mL/min/kg; the intrinsic clearance, rat liver microsomes was determined as 564 mL/min/kg.
On to `Cc1ccc(CN2CC[C@H](c3nnc(-c4ccccc4F)o3)C2)o1`, for which the MDR1-MDCK efflux ratio came to 0.493; the intrinsic clearance, human liver microsomes came out at 27.7 mL/min/kg; the intrinsic clearance, rat liver microsomes came to 790 mL/min/kg; the aqueous solubility came out at 45.4 µg/mL (≈ 139 µM).
On the same counts, the results for `CC(C)[C@H](NC(=O)c1c(F)cccc1F)C(=O)N1CCOCC1` are 8.08, at most 4.74 mL/min/kg, at most 10.7 mL/min/kg and 50.7 µg/mL (≈ 155 µM).
With `CN1CCN(S(=O)(=O)Cc2ccc(Cl)c(Cl)c2)CC1`, the MDR1-MDCK efflux ratio stood at 0.562; the intrinsic clearance, human liver microsomes was found to be 33.9 mL/min/kg; the intrinsic clearance, rat liver microsomes stood at 887 mL/min/kg.
On to `CCS(=O)(=O)N1CC(CC#N)(n2cc(-c3ncnc4[nH]ccc34)cn2)C1`, for which the MDR1-MDCK efflux ratio is 202; the fraction unbound, human plasma amounted to 0.239; the fraction unbound, rat plasma is 1; the intrinsic clearance, human liver microsomes is at most 4.74 mL/min/kg. The compound also yielded an intrinsic clearance, rat liver microsomes of 19.2 mL/min/kg.
Turning to `Fc1ccccc1CN1CCN(c2ncccn2)CC1`, the MDR1-MDCK efflux ratio turned out to be 0.717; the intrinsic clearance, human liver microsomes was determined as 84.7 mL/min/kg; the intrinsic clearance, rat liver microsomes was determined as 800 mL/min/kg; the aqueous solubility was determined as 36.2 µg/mL (≈ 133 µM).
The compound `O=C(c1ccc(NS(=O)(=O)c2cccc3cccnc23)cc1)N1CCN(CC2CC2)CC1` had an intrinsic clearance, human liver microsomes of 75.9 mL/min/kg and an intrinsic clearance, rat liver microsomes of 604 mL/min/kg.
`CCC1=C(C)CN(C(=O)NCCc2ccc(S(=O)(=O)NC(=O)N[C@H]3CC[C@H](C)CC3)cc2)C1=O`: the MDR1-MDCK efflux ratio worked out at 68.6; the fraction unbound, human plasma stood at 0.00066; the fraction unbound, rat plasma stood at 0.00023; the intrinsic clearance, human liver microsomes turned out to be 19.2 mL/min/kg. The compound also displayed an intrinsic clearance, rat liver microsomes of 305 mL/min/kg.
On to `O=C(CN1CCCN(c2ccc(C(F)(F)F)cn2)CC1)Nc1ccccc1F`, for which the MDR1-MDCK efflux ratio was determined as 0.671; the intrinsic clearance, human liver microsomes is 148 mL/min/kg; the intrinsic clearance, rat liver microsomes was found to be 1100 mL/min/kg; the aqueous solubility came to 19.4 µg/mL (≈ 49.1 µM).
For `O=C(Nc1ccc(Cl)nc1)NC1CCN(C2CCCC2)CC1`, the MDR1-MDCK efflux ratio came to 20.9; the intrinsic clearance, human liver microsomes was at most 4.74 mL/min/kg; the intrinsic clearance, rat liver microsomes is at most 10.7 mL/min/kg.
As for `C[C@]1(O)CN(C(=O)Cn2cnc3ccccc3c2=O)CC[C@@H]1Oc1ccccc1`, the MDR1-MDCK efflux ratio worked out at 11.7; the intrinsic clearance, human liver microsomes worked out at 7.14 mL/min/kg; the intrinsic clearance, rat liver microsomes came out at 44.7 mL/min/kg.
`Cc1cccnc1Nc1cccc(C2CCCN(CC(=O)Nc3nccs3)C2)n1` (stereo not drawn): the MDR1-MDCK efflux ratio is 1.49; the fraction unbound, human plasma was determined as 0.0152; the fraction unbound, rat plasma was determined as 0.0434; the intrinsic clearance, human liver microsomes amounted to 89.9 mL/min/kg. Further, the intrinsic clearance, rat liver microsomes worked out at 582 mL/min/kg.
Consider `C[C@@H](c1ccc2ccc(O[C@H]3CC[C@@H](C(F)(F)F)CC3)c(C(F)(F)F)c2c1)N1C2CCC1CC(C(=O)O)C2` (stereo partly drawn), for which the MDR1-MDCK efflux ratio stood at 51.8; the intrinsic clearance, human liver microsomes is 7.58 mL/min/kg; the intrinsic clearance, rat liver microsomes is 35.6 mL/min/kg; the aqueous solubility is 73.2 µg/mL (≈ 135 µM).
Turning to `N#Cc1c(Cl)nc(N)n1-c1ccccc1`, the intrinsic clearance, human liver microsomes was 11.7 mL/min/kg and the intrinsic clearance, rat liver microsomes amounted to 27.7 mL/min/kg.
Regarding `FC(F)(F)c1ccc(Nc2nc3cc(Oc4ccnc(-c5ncc(C(F)(F)F)[nH]5)c4)ccc3[nH]2)cc1`, the MDR1-MDCK efflux ratio worked out at 0.86 and the aqueous solubility was determined as 0.35 µg/mL (≈ 0.694 µM).
On the same counts, the results for `c1ccc(Cc2ccccc2-c2nnc(-c3cccnc3)o2)cc1` are 0.45 and 0.22 µg/mL (≈ 0.702 µM).
`Cc1cc(Br)cn(Cc2ccc(C#N)cc2F)c1=O`: the MDR1-MDCK efflux ratio was determined as 0.644; the intrinsic clearance, human liver microsomes is at most 4.74 mL/min/kg; the intrinsic clearance, rat liver microsomes turned out to be 102 mL/min/kg.
Consider `Cc1cnn(C2CN(CC3(O)CCCCC3)C2)c1`, for which the MDR1-MDCK efflux ratio was determined as 0.488; the intrinsic clearance, human liver microsomes was found to be 54.7 mL/min/kg; the intrinsic clearance, rat liver microsomes amounted to 1900 mL/min/kg; the aqueous solubility is 32.6 µg/mL (≈ 131 µM).
For `NC(=O)c1ccccc1NC(=O)CN1CCCC(c2nc3ccccc3o2)C1` (stereo not drawn) the same measures were 8, 126 mL/min/kg, 827 mL/min/kg and 10 µg/mL (≈ 26.4 µM).
In the case of `CN1CCN(C2=c3ccccc3=Nc3ccc(Cl)cc3N2)CC1`, the MDR1-MDCK efflux ratio worked out at 0.8 and the aqueous solubility worked out at 58.2 µg/mL (≈ 178 µM).
In the case of `Nc1ncc(C(=O)NC2CN(C(=O)C3CC3)C2)c2ccc(-c3cccc(F)c3)nc12`, the MDR1-MDCK efflux ratio amounted to 18.1; the fraction unbound, human plasma came out at 0.042; the fraction unbound, rat plasma came out at 0.0241; the intrinsic clearance, human liver microsomes was at most 4.74 mL/min/kg. This compound came in with an intrinsic clearance, rat liver microsomes of 29.5 mL/min/kg and an aqueous solubility of 7.6 µg/mL (≈ 18.7 µM).
The compound `Cc1nnc(-c2ccccc2-c2c[nH]nc2C)s1` came in with an aqueous solubility of 30.9 µg/mL (≈ 121 µM).
Take `O=C(OCc1cc(Cl)ccn1)c1ccc2[nH]c(C(F)F)nc2c1`: the MDR1-MDCK efflux ratio was found to be 1.37; the intrinsic clearance, human liver microsomes worked out at 515 mL/min/kg; the intrinsic clearance, rat liver microsomes was 1520 mL/min/kg; the aqueous solubility came to 35 µg/mL (≈ 104 µM).
On to `O=C(NC[C@]1(O)CCN(Cc2ccsc2)C[C@H]1O)c1c[nH]cn1`, for which the MDR1-MDCK efflux ratio came to 0.366; the intrinsic clearance, human liver microsomes was at most 4.74 mL/min/kg; the intrinsic clearance, rat liver microsomes is at most 10.7 mL/min/kg.
On the same counts, the results for `C=CC[C@]1(O)CC[C@H]2[C@@H]3CCC4=CC(=O)CCC4=C3C=C[C@@]21C` are 0.761, 58.2 mL/min/kg and 592 mL/min/kg.
For `CC(C)(C)C(=O)N1CCC(CN2C(=O)C(=O)N(C3CCCC3)C2=O)CC1`, the MDR1-MDCK efflux ratio turned out to be 2.03; the intrinsic clearance, human liver microsomes is 22.1 mL/min/kg; the intrinsic clearance, rat liver microsomes is 288 mL/min/kg; the aqueous solubility amounted to 66.8 µg/mL (≈ 184 µM).
With `Cc1cc(C(=O)Nc2nnc3n2CCCC3)n(C)n1`, the MDR1-MDCK efflux ratio stood at 1.44; the intrinsic clearance, human liver microsomes was at most 4.74 mL/min/kg; the intrinsic clearance, rat liver microsomes is 11.4 mL/min/kg.
On to `CC(=O)c1ccc(OCCCCN2CCCC2)cc1`, for which the MDR1-MDCK efflux ratio was determined as 0.895; the intrinsic clearance, human liver microsomes is at most 4.74 mL/min/kg; the intrinsic clearance, rat liver microsomes is 453 mL/min/kg; the aqueous solubility amounted to 36.3 µg/mL (≈ 139 µM).
Consider `CCOc1cc(N2CCc3nc[nH]c3C2)ncn1`, for which the intrinsic clearance, human liver microsomes was at most 4.74 mL/min/kg and the intrinsic clearance, rat liver microsomes was determined as 77.8 mL/min/kg.
Regarding `NC(=O)CN1CCC(Oc2cccc(F)c2)CC1`, the MDR1-MDCK efflux ratio turned out to be 0.543; the intrinsic clearance, human liver microsomes was at most 4.74 mL/min/kg; the intrinsic clearance, rat liver microsomes was found to be 71.6 mL/min/kg; the aqueous solubility was 60.8 µg/mL (≈ 241 µM).
Take `NC(=O)CN1CCC(COc2ccccc2C(F)(F)F)CC1`: the MDR1-MDCK efflux ratio worked out at 0.524; the intrinsic clearance, human liver microsomes is 12.9 mL/min/kg; the intrinsic clearance, rat liver microsomes was found to be 1110 mL/min/kg.
With `COc1cccc(CC(=O)N2CCOC(c3cc(Nc4nnc(C)s4)cc(C)n3)C2)c1` (stereo not drawn), the MDR1-MDCK efflux ratio was found to be 10.7; the intrinsic clearance, human liver microsomes amounted to 68.6 mL/min/kg; the intrinsic clearance, rat liver microsomes is 308 mL/min/kg.
As to `O=C(NCCNc1ncccc1C(F)(F)F)c1cnc2ccccn2c1=O`, the MDR1-MDCK efflux ratio came to 1.09; the intrinsic clearance, human liver microsomes is 27.8 mL/min/kg; the intrinsic clearance, rat liver microsomes is 585 mL/min/kg; the aqueous solubility came out at 66.6 µg/mL (≈ 177 µM).
With `CN(C)C(=O)C(C)(C)NC(=O)OC(C)(C)C`, the MDR1-MDCK efflux ratio came to 1.37; the intrinsic clearance, human liver microsomes was at most 4.74 mL/min/kg; the intrinsic clearance, rat liver microsomes turned out to be 24.3 mL/min/kg.
For the compound `FC(F)(F)c1nccc(NCCSc2nc3ccccc3o2)n1`, the MDR1-MDCK efflux ratio was 0.317; the intrinsic clearance, human liver microsomes came to 256 mL/min/kg; the intrinsic clearance, rat liver microsomes was determined as 747 mL/min/kg; the aqueous solubility was 44.9 µg/mL (≈ 132 µM).
For `CC(=O)c1ccccc1-c1cccc(C(=O)NCCCN2CCCC2)c1`, the MDR1-MDCK efflux ratio stood at 133; the intrinsic clearance, human liver microsomes was at most 4.74 mL/min/kg; the intrinsic clearance, rat liver microsomes came out at 742 mL/min/kg.
For `O=C(CSc1ccc2c(c1)OCCO2)NC1CCCC1`, the MDR1-MDCK efflux ratio stood at 0.73; the intrinsic clearance, human liver microsomes turned out to be 83.8 mL/min/kg; the intrinsic clearance, rat liver microsomes was determined as 5820 mL/min/kg.
On to `CC(=O)NC1(c2ccc(F)cc2)CCN(Cc2ccc(OC3CCCC3)cc2)CC1`, for which the intrinsic clearance, human liver microsomes is 24.8 mL/min/kg; the intrinsic clearance, rat liver microsomes was found to be 346 mL/min/kg; the aqueous solubility is 72.4 µg/mL (≈ 176 µM).

Source of the values: the Biogen ADME set (Fang et al. 2023).
